Results published in patent US7109215B2, “Compounds possessing neuronal activity” (Vertex Pharmaceuticals Incorporated, priority 1997, dated 2006).
Marks after values point to notes of the source that are not given here.

What was measured:
[1] = tested on: pheochromocytoma PC12 cells; test: Neurite outgrowth quantitation in PC12 cell system; assay type: cell-based, rat; details: for Neurite outgrowth, visual scale of 0 to 4: 1–5 ng/ml NGF, 72 hours
Protocol: In order to directly determine the neurotrophic activity of compounds described in this invention, the neurite outgrowth assay was carried out with pheochromocytoma PC12 cells as described by Lyons et al. (1994).
PC12 cells were maintained at 37° C. and 5% CO2 in Dulbecco's modified Eagle's medium (DMEM) supplemented with 10% heat-inactivated horse serum, 5% heat-inactivated fetal bovine serum (FBS), and 1% glutamate.
The cells were then plated at […] in 96 well plates coated with […] rat tail collagen and allowed to attach overnight. The medium was then replaced with DMEM, 2% heat-inactivated horse serum, 1% glutamate, 1–5 ng/ml of NGF (Sigma) and varying concentrations of the compounds of this invention (0.01 nM–10000 nM). The background control culture was administered with […] of NGF alone without compound. Positive control cultures were administered with high concentration of NGF (50 ng/ml). The cells were then incubated at 37° C. at 5% CO2 for 72 hours, fixed with 3% formaldehyde and nerve outgrowth was determined visually on a scale of 0 to 4.

[2] = tested on: HL60/Vinc cells; test: MDR sensitization (reversal) assay, doxorubicin, XTT viability; assay type: cell-based, human; details: compound 2.5 μM, IC50 doxorubicin alone / IC50 doxorubicin plus compound
Protocol: (§1) We carried out multidrug resistance reversal (MDR) assays using L1210vMDRC.06 or HL60/Vinc cell lines. L1210vMDRC.06 are L1210 mouse leukemia cells transduced with the pHaMDR1/A retrovirus carrying a MDR1 cDNA, as described by Pastan et al., Proc. Natl. Acad. Sci. USA, 85, pp. 4486–4490 (1988). The L1210vMDRC.06 multidrug resistant line is a cell line that has been drug-selected by culturing transfected cells in 0.06 μg/ml colchicine. The HL60/Vinc human promyleocytic leukemia cell line is a multidrug resistant cell line derived from HL60 drug-sensitive parental cells by selection in increasing concentrations of vincristine.
Assays using HL60/Vinc cells were performed by plating cells in 96 well microtiter plates at a concentration of 4×10^4 cells/well. The cells were then exposed to various concentrations of doxorubicin (9 nM to 6.7 μM) in the presence or absence of various compounds of this invention at various concentrations (0.5, 1.0, 2.5, 5.0 or 10 μM) as described in U. Germann et al., Anti-Cancer Drugs, 8, pp. 141–155 (1997). After culturing the cells for 3 days, their viability was quantitated using the XTT dye method to assess mitochondrial function (Roehm et al., supra). Results were expressed as a ratio of the IC50 for doxorubicin alone to the IC50 for doxorubicin plus compound. In all assays the intrinsic antiproliferative or cytotoxicity activity of the MDR inhibitors was also determined for HL60/Vinc cells.

[3] = target: FKBP (Homo sapiens, UniProt P62942); test: Rotamase inhibition assay (chymotrypsin-coupled PPIase assay); assay type: biochemical; details: 15 nM FKBP, 30 μM Suc-Ala-Leu-Pro-Phe-pNA, 15° C.
Protocol: Inhibition of FKBP enzyme activity was determined in the PPIase assay described in S. T. Park et al., J. Biol. Chem., 267, pp. 3316–24 (1992), the disclosure of which is herein incorporated by reference. This is a chymotrypsin-coupled assay in which FKBP catalyzes the cis to trans isomerization of the Leu-Pro bond in the peptide substrate Suc-Ala-Leu-Pro-Phe-pNA. The trans form, but not the cis form, is cleavable by chymotrypsin. The release Phe-pNA was monitored by absorbance at 400 nm. Chymotrypsyn cleavage is very rapid and therefore cis-to-trans isomerization is rate-limiting.
Each reaction mix consisted of 0.1 M Tris buffer, pH 7.8, 15 nM FKBP, 30 μM substrate and 0.5 nM to 10 μM of compound to be tested diluted in Me2SO. The mixture was incubated at 15° C. for 5 minutes and then reaction was initiated by addition of chymotrypsin (100 μg/ml final concentration) and followed spectrophotometrically for 5 minutes. Total reaction volume was 1 ml.

[4] = tested on: L1210vMDRC.06 cells; test: MDR sensitization (reversal) assay, doxorubicin, XTT viability; assay type: cell-based, mouse; details: compound 2.5 μM, IC50 Dox/IC50 Dox+Inhibitor
Protocol: as §1
Using L1210vMDRC.06, multidrug resistance reversal assays were conducted by plating 1×10^4 cells/well in 96 well microtiter plates and exposing them to a concentration range of doxorubicin (50 nM–10 μM) in the presence or absence of compounds of this invention (0.1, 0.25, 0.5, 1.0, or 2.5 μM) as described in U. Germann et al., Anti-Cancer Drugs, 8, pp. 125–140 (1997). After culture for 3 days, the viability of cells was quantitated using XTT dye to assess mitochondrial function [Roehm et al., J. Immunol. […] Results were determined by comparison of the IC50 for doxorubicin alone to the IC50 for doxorubicin+compound. An MDR ratio was calculated (IC50 Dox/IC50 Dox+Inhibitor) and the integer value used for comparison of compound potencies.

Chain of FKBP (P62942 whole entry): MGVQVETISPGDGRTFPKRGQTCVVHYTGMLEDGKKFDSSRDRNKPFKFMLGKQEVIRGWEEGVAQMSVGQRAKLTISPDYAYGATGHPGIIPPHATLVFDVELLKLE

Q: Which “Neurite outgrowth, visual scale of 0 to 4” value (from here on “Neurite outgrowth … to 4”) ([1]; compound 10 nM) does the source give for CN(CCc1ccccn1)C(=O)C(Cc1ccccc1)N(C)S(=O)(=O)c1ccc(N)cc1 (stereo in doubt) [Compound 2, (S)-(N-methyl)-2-(methyl-(4-amino-benzenesulfanilamido))-3-phenyl-N-(2-(pyridin-2yl)ethyl) propionamide] here?
A: Its value is 3***.

Q: What about the “Neurite outgrowth … to 4” value ([1]; compound 100 nM) of the same molecule?
A: The value was 3***.

Q: And the “Neurite outgrowth … to 4” value ([1]; compound 1000 nM)?
A: The value was 4***.

Q: And the “MDR Ratio” value [2]?
A: Its value is 0.7.

Q: What about the Ki [3] of the same molecule?
A: Its Ki is > 50 µM.

Q: Which results are given for CN(CCc1ccccn1)C(=O)C1CCCCN1 (centres unmarked) [Compound 106]?
A: Neurite outgrowth, visual scale of 0 to 4 ([1]; compound 100 nM): 1*; Neurite outgrowth, visual scale of 0 to 4 ([1]; compound 1000 nM): 2*; MDR Ratio [2]: 1.2; Ki [3]: > 50 µM

Q: What does the source list for CNC(Cc1ccccc1)C(=O)N(C)CCc1ccccn1 (centres unmarked) [Compound 107]?
A: Neurite outgrowth, visual scale of 0 to 4 ([1]; compound 100 nM): 3*; Neurite outgrowth, visual scale of 0 to 4 ([1]; compound 1000 nM): 0*; MDR Ratio [2]: 0.9; Ki [3]: > 25 µM

Q: With O=C(NCc1cccnc1)C1CCCCN1 (centres unmarked) [Compound 103] as the molecule, how does the “Neurite outgrowth over background control cultures (in words)” value ([1]; PC12 assay) read?
A: The value was “Negative results”.

Q: And the “Neurite outgrowth … to 4” value ([1]; compound 10 nM)?
A: The value was 0.

Q: And the “Neurite outgrowth … to 4” value ([1]; compound 100 nM)?
A: The value was 0.

Q: And the “Neurite outgrowth … to 4” value ([1]; compound 1000 nM)?
A: Its value is 0.

Q: What about the “MDR Ratio” value [2] of the same molecule?
A: Its value is 0.7.

Q: What about the Ki [3] of the same molecule?
A: Its Ki is > 50 µM.

Q: For COc1cc(C(=O)CN2CCCCC2C(=O)OC(CCCc2cccnc2)CCCc2cccnc2)cc(OC)c1OC (centres unmarked) [Compound 105], which “Neurite outgrowth … to 4” value ([1]; compound 10 nM) is on record?
A: The value was 4.

Q: And the “Neurite outgrowth … to 4” value ([1]; compound 100 nM)?
A: Its value is 4.

Q: What about the “Neurite outgrowth … to 4” value ([1]; compound 1000 nM) of the same molecule?
A: Its value is 0.

Q: And the “MDR Ratio” value [4]?
A: The value was 10.

Q: Which “Neurite outgrowth … to 4” value ([1]; compound 10 nM) does the source give for CN(C(=O)[C@H](Cc1ccccc1)N(C)S(=O)(=O)c1ccc(N)cc1)C(CCCc1cccnc1)CCCc1cccnc1 [Compound 4, (S)-(N-methyl)-2-(methyl-(4-amino-benzenesulfanilamido))-3-phenyl-N-(4-(pyridin-3-yl)-1-(3-(pyridin-3-yl)propyl)butyl) propionamide] here?
A: The value was 3*.

Q: What about the “Neurite outgrowth … to 4” value ([1]; compound 100 nM) of the same molecule?
A: The value was 3*.

Q: And the “Neurite outgrowth … to 4” value ([1]; compound 1000 nM)?
A: Its value is 4*.

Q: What about the “MDR Ratio” value [2] of the same molecule?
A: The value was 6.2.

Q: What about the Ki [3] of the same molecule?
A: Its Ki is > 25 µM.

Q: CN(CCCc1cccnc1)C(=O)C1CCCCN1 (centres unmarked) [Compound 110] was tested. Which “Neurite outgrowth … to 4” value ([1]; compound 100 nM) did it give?
A: Its value is 3*.

Q: And the “Neurite outgrowth … to 4” value ([1]; compound 1000 nM)?
A: The value was 0*.

Q: What about the “MDR Ratio” value [2] of the same molecule?
A: Its value is 1.1.

Q: What about the Ki [3] of the same molecule?
A: Its Ki is > 25 µM.

Q: With CN(C(=O)[C@H](Cc1ccccc1)N(C)S(=O)(=O)c1ccccc1[N+](=O)[O-])C(CCCc1cccnc1)CCCc1cccnc1 [Compound 8] as the molecule, how does the “Neurite outgrowth … to 4” value ([1]; compound 10 nM) read?
A: Its value is 4*.

Q: What about the “Neurite outgrowth … to 4” value ([1]; compound 100 nM) of the same molecule?
A: The value was 2*.

Q: What about the “Neurite outgrowth … to 4” value ([1]; compound 1000 nM) of the same molecule?
A: The value was 3*.

Q: And the “MDR Ratio” value [2]?
A: The value was 28.5.

Q: And the Ki [3]?
A: Its Ki is > 50 µM.

Q: Which “Neurite outgrowth … to 4” value ([1]; compound 10 nM) does the source give for O=C(OC(CCCc1ccncc1)CCCc1cccnc1)C1CCCCN1Cc1ccncc1 (centres unmarked) [Compound 113] here?
A: The value was 3*.

Q: And the “Neurite outgrowth … to 4” value ([1]; compound 100 nM)?
A: The value was 4*.

Q: What about the “Neurite outgrowth … to 4” value ([1]; compound 1000 nM) of the same molecule?
A: The value was 4*.

Q: What about the “MDR Ratio” value [2] of the same molecule?
A: The value was 2.3.

Q: And the Ki [3]?
A: Its Ki is > 50 µM.

Q: What does the source list for CN(CCCc1cccnc1)C(=O)[C@@H]1CCCCN1S(=O)(=O)c1ccc(N)cc1 [Compound 3]?
A: Neurite outgrowth, visual scale of 0 to 4 ([1]; compound 10 nM): 2***; Neurite outgrowth, visual scale of 0 to 4 ([1]; compound 100 nM): 4***; Neurite outgrowth, visual scale of 0 to 4 ([1]; compound 1000 nM): 4***; MDR Ratio [2]: 0.6; Ki [3]: > 50 µM
